Where two headings read alike, the source gives them in different places.
What was measured:
[1] = test system: cortical excitability; assay: TMS crossover study, global mean field power (GMFP); assay type: in vivo, human; conditions: 20 mg, pre-dose vs post-dose (FIG. 12)
Text: Additional measures of cortical excitability including global mean field power were similarly impacted.

[2] = Transcranial magnetic stimulation pilot study (RMT/AMT, TEPs, rEEG); conditions: male, human, in vivo
Description: (§1) In a pilot study TMS was used to non-invasively determine whether Compound A (10, 15 and 20 mg) impacts cortical excitability. The TMS pilot study was designed to inform sample size calculation for a larger randomized, double-blind and placebo-controlled TMS cross-over study (N=20) with Compound A.
(§2) Eight healthy, right-handed male subjects (aged 21-35 years, 62.4-95.4 kg) from a First-in-Human Phase 1 study were enrolled in this open-label TMS pilot study. RMT, TEPs and EEGs were recorded prior to Compound A, 2 and 4 h post dose. Spectral analysis was performed on resting EEGs. Single-subject level analyses were performed via multiple independent sample t-tests to determine effects of Compound A on TEP amplitudes. Multiple comparisons were accounted for using clusterbased permutation analysis.

[3] = test system: cortical excitability; assay: as above
Description: as §1, §2

[4] = test system: cortical excitability; assay: TMS crossover study, TMS-induced oscillations; assay type: in vivo, human
Description: Before drug intake, at baseline, TMS induced an early increase of theta/alpha power followed by a beta power decrease (de-synchronization) and a final late response of increased beta power. The effects of the active compound on TMS-induced oscillations were then analysed by means of a cluster-based permutation analysis following the same procedure as adopted in the analysis of TEPs. Theta (4-7 Hz), alpha (8-12 Hz) and beta (13-30 Hz) TMS-induced oscillations were compared from 30 ms (the first time-frequency point considered artefact free) to 800 ms between drug conditions. This method was preferred instead of a predetermined set of time windows, given the absence of a consensus for time windows of interest to be used in the TMS induced oscillation analysis. Also, the present cluster-based statistics approach is appropriate for exploratory analyses, as it minimizes false-positives involved in testing multiple time-points.

[5] = First-in-human SAD and MAD study, pharmacokinetics; assay type: in vivo
Description: A first-in-human study was conducted to evaluate the safety, tolerability and pharmacokinetics (PK) of single and multiple ascending doses (SAD and MAD) of oral Compound A.
In the SAD Phase, 32 healthy volunteers were randomized (3:1) to Compound A (5, 15, 20, 25 or 30 mg) or placebo. The study featured an adaptive design. A crossover food effect cohort (N=10) was also completed with single doses of 20 mg. A sub-set of 8 male subjects were also assessed with Transcranial Magnetic Stimulation (TMS) for effects on cortical excitability (see Examples 4 and 5).
Repeat doses of Compound A (15 mg QD) were evaluated in a fasted and fed state over 7 and 10 days, respectively. Repeat doses of Compound A (25 mg QD) were also evaluated in a fed state over 10 days.
Compound A was formulated as an immediate release capsule. Serial plasma PK samples were collected for all cohorts. Safety evaluations throughout the study included adverse event (AE) monitoring, clinical laboratory tests, vital signs, ECGs, physical examinations and Columbia-Suicide Severity Rating Scale.

[6] = at highest Compound A plasma concentration vs pre-dose
[7] = human, plasma, oral, 5 mg, SAD, 5 mg fasted, N=3, Mean ± SD
[8] = human, plasma, oral, 15 mg, MAD, 15 mg Fed, Day 1, N=6, mean
[9] = human, plasma, oral, 15 mg, MAD, 15 mg Fed, Day 10, N=6, mean
[10] = human, plasma, oral, 15 mg, MAD, 15 mg QD Fasted, Day 1, N=6, mean
[11] = human, plasma, oral, 15 mg, MAD, 15 mg QD Fasted, Day 7, N=6, mean
[12] = human, plasma, oral, 15 mg, SAD, 15 mg fasted, N=3, Mean ± SD
[13] = human, plasma, oral, 20 mg, SAD, 20 mg fasted, N=6, Mean ± SD
[14] = human, plasma, oral, 25 mg, MAD, 25 mg QD Fed, Day 1, N=6, mean
[15] = human, plasma, oral, 25 mg, MAD, 25 mg QD Fed, Day 10, N=6, mean
[16] = human, plasma, oral, 25 mg, SAD, 25 mg fed standard breakfast, N=6, Mean ± SD
[17] = human, plasma, oral, 30 mg, SAD, 30 mg fasted, N=6, Mean ± SD

## Cc1cc(N2CCc3cc(F)ccc3C2)cc(C)c1NC(=O)CC(C)(C)C [Compound A, N-[4-(6-fluoro-3,4-dihydro-1H-isoquinolin-2-yl)-2,6-dimethylphenyl]-3,3-dimethylbutanamide]
[1]
  global mean field power (GMFP): reduction of cortical excitability over time
[2]; 10 mg
  concentration at 4 h: 23.1 ng/mL
[2]; 15 mg
  concentration at 4 h: 36.3 ng/mL
[2]; 20 mg
  concentration at 4 h: 50 ± 10 ng/mL
[3]; 10 mg (N=2) and 15 mg (N=3)
  TEP modulation: did not show significant and robust TEP modulation
[3]; 10 mg, N=2
  AMT: did not change AMT
[3]; 10, 15, 20 mg
  SICI assessed with TMS/EMG: but not SICI
[3]; 10, 15, 20 mg, 2 and 4 hours post-drug
  motor thresholds assessed with TMS/EMG: increased
[3]; 4 h post 20 mg
  RMT increase from baseline: 4.3±0.6%
  theta power in rEEG: increased
[3]; 4 h post 20 mg, p<0.01, N=3
  suppression of TEP amplitude, peak at 180 ms (P180): 1.92±0.03 μV
[4]; 2 h after dosing vs pre-dose
  Modulation of TMS-induced oscillations, Alpha: Not significant
  Modulation of TMS-induced oscillations, Beta: Not significant
  Modulation of TMS-induced oscillations, Theta: Not significant
[4]; 4 h after dosing vs pre-dose
  Modulation of TMS-induced oscillations, Alpha: ↓ Alpha 250-390 ms
  Modulation of TMS-induced oscillations, Beta: ↑ Beta 250-330 ms
  Modulation of TMS-induced oscillations, Theta: ↓ Theta 30-180 ms
[4]; all available subjects, 2 h post-dose
  theta TMS-induced oscillations: trend to suppress
[4]; all available subjects, 4 h, p=0.03, 250 to 400 ms
  alpha TMS-induced oscillations: suppressed
[4]; all available subjects, 6 h, p=0.03, 80 to 300 ms
  theta induced oscillations: significant depression
[4]; all available subjects, 6 h, trend p=0.07, 270-390 ms
  alpha band TMS-induced oscillations: trend to suppress
[4]; [6]
  Modulation of TMS-induced oscillations, Alpha: ↓ Alpha 220-400 ms
  Modulation of TMS-induced oscillations, Beta: ↑ Beta 210-310 ms
  Modulation of TMS-induced oscillations, Theta: ↓ Theta 30-390 ms
[4]; concentration analysis N=16, p<0.001, 30 to 390 ms
  early theta TMS-induced oscillations: suppressed
[4]; concentration analysis N=16, p=0.02, 220 to 400 ms
  alpha TMS-induced oscillations: suppressed
[4]; concentration analysis N=16, p=0.04, 220 to 310 ms
  beta TMS-induced power: increased
[4]; subjects with drug exposure, 2 h post-dose
  TMS-induced oscillations: did not modulate oscillations
[4]; subjects with drug exposure, 4 h, p=0.03, 30 to 180 ms
  early theta TMS-induced oscillations: suppressed
[4]; subjects with drug exposure, 4 h, p=0.03, 250 to 390 ms
  alpha TMS-induced oscillations: suppressed
[4]; subjects with drug exposure, 4 h, p=0.04, 250 to 330 ms
  beta TMS-induced desynchronization: increased
[4]; subjects with drug exposure, 6 h, p<0.001, 30 to 280 ms
  theta induced oscillations: significant depression
[5]; crossover food effect cohort, 20 mg
  absorption enhanced by food, AUCinf: ~1.8 fold
[5]; fasted state
  dose proportionality of exposure: less than dose-proportional exposure
[5]; [7]
  Cmax: 7.13 ± 6.12 ng/mL
  Tmax: 3.17 ± 2.47 h
[5]; human, plasma, oral, 5 mg, SAD, 5 mg fasted, N=3, Mean ± SD, read-out: AUC0-24
  AUC(0-t): 74.6 ± 50.5 ng·h/mL
[5]; human, plasma, oral, 5 mg, SAD, 5 mg fasted, N=3, tLast 32 h, Mean ± SD, read-out: AUC0-t
  AUC(0-t): 91.3 ± 54.2 ng·h/mL
[5]; [8]
  Cmax: 35.9 ng/mL
  Tmax: 4.37 h
[5]; human, plasma, oral, 15 mg, MAD, 15 mg Fed, Day 1, N=6, mean, read-out: AUC0-24
  AUC(0-t): 353 ng·h/mL
[5]; [9]
  Cmax: 60.8 ng/mL
  Tmax: 3.69 h
[5]; human, plasma, oral, 15 mg, MAD, 15 mg Fed, Day 10, N=6, mean, read-out: AUC0-24
  AUC(0-t): 1020 ng·h/mL
[5]; human, plasma, oral, 15 mg, MAD, 15 mg Fed, Day 10, N=6, mean, read-out: AUC0-t
  AUC(0-t): 4950 ng·h/mL
[5]; [10]
  Cmax: 10.5 ng/mL
  Tmax: 2.68 h
[5]; human, plasma, oral, 15 mg, MAD, 15 mg QD Fasted, Day 1, N=6, mean, read-out: AUC0-24
  AUC(0-t): 125 ng·h/mL
[5]; [11]
  Cmax: 45.1 ng/mL
  Tmax: 2.69 h
[5]; human, plasma, oral, 15 mg, MAD, 15 mg QD Fasted, Day 7, N=6, mean, read-out: AUC0-24
  AUC(0-t): 757 ng·h/mL
[5]; human, plasma, oral, 15 mg, MAD, 15 mg QD Fasted, Day 7, N=6, mean, read-out: AUC0-t
  AUC(0-t): 4260 ng·h/mL
[5]; [12]
  Cmax: 27.3 ± 11.1 ng/mL
  Tmax: 4.5 ± 2.6 h
[5]; human, plasma, oral, 15 mg, SAD, 15 mg fasted, N=3, Mean ± SD, read-out: AUC0-24
  AUC(0-t): 328 ± 141 ng·h/mL
[5]; human, plasma, oral, 15 mg, SAD, 15 mg fasted, N=3, tLast 32 h, Mean ± SD, read-out: AUC0-t
  AUC(0-t): 397 ± 166 ng·h/mL
[5]; [13]
  Cmax: 31.5 ± 21.1 ng/mL
  Tmax: 3.69 ± 2.05 h
[5]; human, plasma, oral, 20 mg, SAD, 20 mg fasted, N=6, Mean ± SD, read-out: AUC0-24
  AUC(0-t): 376 ± 220 ng·h/mL
[5]; human, plasma, oral, 20 mg, SAD, 20 mg fasted, N=6, tLast 72 h, Mean ± SD, read-out: AUC0-t
  AUC(0-t): 709 ± 337 ng·h/mL
[5]; [14]
  Cmax: 49.6 ng/mL
  Tmax: 4.38 h
[5]; human, plasma, oral, 25 mg, MAD, 25 mg QD Fed, Day 1, N=6, mean, read-out: AUC0-24
  AUC(0-t): 592 ng·h/mL
[5]; [15]
  Cmax: 96.7 ng/mL
  Tmax: 4.99 h
[5]; human, plasma, oral, 25 mg, MAD, 25 mg QD Fed, Day 10, N=6, mean, read-out: AUC0-24
  AUC(0-t): 1720 ng·h/mL
[5]; human, plasma, oral, 25 mg, MAD, 25 mg QD Fed, Day 10, N=6, mean, read-out: AUC0-t
  AUC(0-t): 8010 ng·h/mL
[5]; [16]
  Cmax: 45.8 ± 14.3 ng/mL
  Tmax: 4.51 ± 1.22 h
[5]; human, plasma, oral, 25 mg, SAD, 25 mg fed standard breakfast, N=6, Mean ± SD, read-out: AUC0-24
  AUC(0-t): 482 ± 130 ng·h/mL
[5]; human, plasma, oral, 25 mg, SAD, 25 mg fed, N=6, tLast 146 h, Mean ± SD, read-out: AUC0-t
  AUC(0-t): 1470 ± 270 ng·h/mL
[5]; [17]
  Cmax: 35.5 ± 33.5 ng/mL
  Tmax: 3.17 ± 1.48 h
[5]; human, plasma, oral, 30 mg, SAD, 30 mg fasted, N=6, Mean ± SD, read-out: AUC0-24
  AUC(0-t): 369 ± 219 ng·h/mL
[5]; human, plasma, oral, 30 mg, SAD, 30 mg fasted, N=6, tLast 72 h, Mean ± SD, read-out: AUC0-t
  AUC(0-t): 837 ± 280 ng·h/mL
[5]; human, plasma, oral, MAD, 15 mg Fed, Day 10, N=6, mean
  half-life at 10 days: 239 h
[5]; human, plasma, oral, MAD, 15 mg QD Fasted, Day 7, N=6, mean
  half-life at 7 days: 167 h
[5]; human, plasma, oral, MAD, 25 mg QD Fed, Day 10, N=6, mean
  half-life at 10 days: 218 h
[5]; human, plasma, oral, SAD, 5 mg fasted, N=3, Mean ± SD, read-out: T1/2 (converted)
  half-life: 49.2 ± 31.1 h
[5]; human, plasma, oral, SAD, 15 mg fasted, N=3, Mean ± SD, read-out: T1/2 (converted)
  half-life: 41.9 ± 31.1 h
[5]; human, plasma, oral, SAD, 20 mg fasted, N=6, Mean ± SD, read-out: T1/2 (converted)
  half-life: 48.9 ± 14.7 h
[5]; human, plasma, oral, SAD, 25 mg fed standard breakfast, N=6, Mean ± SD, read-out: T1/2 (converted)
  half-life: 97.2 ± 18 h
[5]; human, plasma, oral, SAD, 30 mg fasted, N=6, Mean ± SD, read-out: T1/2 (converted)
  half-life: 63.4 ± 28.2 h
[5]; human, plasma, oral, immediate release formulation, read-out: effective half-life
  half-life: > 24 h
[5]; multiple doses, fed state
  dose proportionality of exposure: exposure increased in proportion to dose
[5]; multiple doses, 90% CI of successive day's exposure ratio within 0.8-1.25
  apparent steady state achieved: 6 to 9 days
[5]; once a day dosing
  peak to trough ratio: low
[5]; once per day dosing, without titration
  attainment of steady state: 1 week

From patent US11135214B2, “Methods for enhancing the bio availability and exposure of a voltage-gated potassium channel opener” (priority 2018, dated 2021)
